Assay results from EP1094711B1, “METHODS FOR ERADICATION OF NANOBACTERIA” (Nanobac Oy, priority 1998, dated 2000).
Where a name gives a salt, the structure may show the parent alone. Read-outs that look alike come from different tables or passages of the source.

What was measured:
Assay type in all cases: cell-based
[1] = tested on: SF-nanobacteria; assay: Chemical disinfection of SF-nanobacteria; parameters: key to Resistance of SF-nanobacteria to chemical disinfectants (survival) / partial or total detachment on exposure: +++: No effect; ++: Reduced survival; +: Markedly reduced survival; - : No survival; * = partial or total detachment on exposure; conditions: for Resistance of SF-nanobacteria to chemical disinfectants (survival): survival after subculture compared to diluent only; for effect of chemical disinfection on SF-nanobacteria (in words): exposure at room temperature, then subculture
Source text: The cultures were exposed to the disinfectants after removal of the culture medium. For the autoclaving, UV, microwave, and drying treatments, the medium was removed and an equal amount of PBS used instead. For the heat treatments, the SF-nanobacteria were harvested by scraping the culture vessel followed by centrifugation of the medium. The obtained pellet was suspended in PBS and used in the test. After treatments the SF-nanobacteria were subcultured in DMEM medium and the growth followed by light microscopy to see the adherence and typical mineralization.
The concentrations of the chemicals used were those commonly used for disinfection or as instructed by the manufacturer. The chemicals included 70% ethanol, 2% glutaraldehyde, 4% formaldehyde, 0.5% hypochlorite, 3% hydrogen peroxide, 1M hydrochloric acid (HCl), 1M sodium hydroxide (NaOH) , 1% sodium dodecyl sulfate (SDS), 1% Tween 80, 1 % Triton X-100, 3M guanidium-hydrochloride, 3M urea, 1% Virkon® (Antec International Ltd., Suffolk, England; 100% product contains 50% potassium persulfate, 5% sulfaminoic acid), 1.5% Erifenol® (Orion OY, Finland; 100% product contains <5% NaOH, <5% o-benzyl-p-chlorophenol, 5-15% p-chloro-m-cresol), 1% Klorilli® (Orion OY, Finland; 100% product contains sodium metasilicate, sodium N-chloro-p-toluenesulfonamide-3-hydrate and 20,000 ppm active chlorine), and 3% Buraton® (Schülke & Mayr, Germany; 100% product contains 4.5% formaldehyde, 6.8% glyoxal, 1.5% glyoxylic acid, 6% dimethylaurylbenzyl-ammonium chloride). The dilutions to be used were freshly prepared on the day of exposure in sterile distilled water. As a positive control, only diluent was used. Negative control contained only culture medium.
The SF-nanobacteria were exposed to the chemicals for 10 and 30 minutes at room temperature after removal of the culture medium. After exposure, the disinfectant solution was removed and fresh medium added (with a neutralization step in the case of HCl and NaOH). If any significant deattachment occurred, nanobacteria were recovered by centrifugation, and subcultured. The exposed serum-free cultures were passaged 1:10 after 48 hours and the growth was followed by light microscopy for three weeks.

[2] = tested on: nanobacteria; assay: Antibiotic sensitivity test by Minimal Inhibition Concentration (MIC), 96-well plates, absorbance at 650 nm
Description: Antibiotic sensitivity tests were carried out by measuring Minimal Inhibition Concentration (MIC), a common practice in clinical microbiology.
The tests were performed in 96-well plates. DMEM (commercial cell culture medium) containing 10% gamma-irradiated fetal bovine serum (FBS)(dose about 3 Mrads; this treatment inactivates nanobacteria in the serum so that the basic medium is sterile) was used as the basic culture medium. These components are commercially available, e.g., from Gibco. The antibiotic stock solutions were sterile filtered through 0.2 micrometer filters. The stock solutions were then serially diluted (into the basal culture medium) to provide a final starting concentration of 0.5 mg/ml and 1:2 dilutions therefrom, unless otherwise specified. For each antibiotic three parallel tests were performed using all the antibiotic dilutions and, additionally, positive and negative control experiments. […] 100 µl of dilutions of the nanobacteria inoculum were added to all wells except the negative controls. The plates were incubated at mammalian cell culture conditions (37° Celsius, 5% carbon dioxide, 95% humid air). The absorbance values at 650 nm were recorded by using an ELISA reader at the start, and at 4, 8, 12, 14 days. […] Calculations were based on absorbance curves where absorbance was plotted against concentration of the antibiotic.

[3] = tested on: nanobacteria; assay: Nanobacterial growth and biofilm formation on stents with metal ions in the culture medium; conditions: salts added to the culture medium
Source text: Nanobacteria also absorb some heavy metals. Nanobacteria can be stained well with silver or copper compounds. […] Silver and copper parts or platings on surfaces, such as catheters or stents, can provide an antinanobacterial effect by preventing nanobacterial biofilm formation. In in vitro tests nanobacteria avidly formed biofilm on two different commercial stents made of a plastic type of material. This biofilm formation was prevented by the addition of silver or copper salts to the culture medium.

[4] = Exposure time 10 min, room temperature
[5] = Exposure time 30 min, room temperature
[6] = light or radiation study, 288 h; read-out: MIC 50
[7] = light or radiation study, 288 h; 90% inhibition, 12 day time point, DMEM with 10% gamma-irradiated FBS; read-out: MIC 90
[8] = 50% inhibition, 12 day time point, DMEM with 10% gamma-irradiated FBS
[9] = short chain organic acids tested later in culture tests; read-out: MIC50 values

CCCCCCCCCCCCOS(=O)(=O)[O-].[Na+] [1 % SDS, sodium dodecyl sulfate]
Resistance of SF-nanobacteria to chemical disinfectants (survival) [1, 4]: +++
Resistance of SF-nanobacteria to chemical disinfectants (survival) [1, 5]: +++

CCCCCCCC/C=C\CCCCCCCC(=O)OCCOCC(OCCO)C1OCC(OCCO)C1OCCO (stereo not drawn) [1 % Tween 80, Tween 80]
Resistance of SF-nanobacteria to chemical disinfectants (survival) [1, 4]: +++
Resistance of SF-nanobacteria to chemical disinfectants (survival) [1, 5]: +++

[Na+].[OH-] [1M NaOH, sodium hydroxide]
Resistance of SF-nanobacteria to chemical disinfectants (survival) [1, 4]: +++
Resistance of SF-nanobacteria to chemical disinfectants (survival) [1, 5]: +++

O=CCCCC=O [2% glutaraldehyde, glutaraldehyde]
Resistance of SF-nanobacteria to chemical disinfectants (survival) [1, 4]: +++
Resistance of SF-nanobacteria to chemical disinfectants (survival) [1, 5]: +++

N=C(N)N [3M Guanidium HCl, guanidium-hydrochloride]
Resistance of SF-nanobacteria to chemical disinfectants (survival) [1, 5]: 0
effect of chemical disinfection on SF-nanobacteria (in words) [1]: deattachment

NC(N)=O [3M Urea, urea]
Resistance of SF-nanobacteria to chemical disinfectants (survival) [1, 4]: +++
Resistance of SF-nanobacteria to chemical disinfectants (survival) [1, 5]: +++

C=O [4% formaldehyde, formaldehyde]
Resistance of SF-nanobacteria to chemical disinfectants (survival) [1, 4]: +++
Resistance of SF-nanobacteria to chemical disinfectants (survival) [1, 5]: +++

CCO [70% ethanol, ethanol]
Resistance of SF-nanobacteria to chemical disinfectants (survival) [1, 4]: +++
Resistance of SF-nanobacteria to chemical disinfectants (survival) [1, 5]: +++

CC(=O)Oc1ccccc1C(=O)O [Acetylsalicylic acid]
IC50 ([2]; 288 h; read-out: MIC 50): 500 mg/L
antinanobacterial effect in the in vitro test (in words) ([2]; in vitro MIC test): weak

CC1(C)S[C@@H]2[C@H](NC(=O)[C@H](N)c3ccccc3)C(=O)N2[C@H]1C(=O)O [Ampicillin]
antinanobacterial effect in the in vitro test (in words) ([2]; in vitro MIC test): weak bacteriostatic effect
IC50 [2, 6]: 500 mg/L

CC(=O)OCC1=C(C(=O)O)N2C(=O)[C@@H](NC(=O)Cc3cccs3)[C@H]2SC1 [Cephalothin]
IC50 [2, 6]: > 500 mg/L

O=P(O)(O)C(Cl)(Cl)P(=O)(O)O [Chlodronate]
antinanobacterial effect in the in vitro test (in words) ([2]; in vitro MIC test): bacteriocidic effect
IC90 [2, 7]: 0.5 mg/L
IC50 [2, 6]: 0.1 mg/L

O=C(N[C@H](CO)[C@H](O)c1ccc([N+](=O)[O-])cc1)C(Cl)Cl [Chloramphenicol]
IC50 [2, 6]: > 500 mg/L

O=C(O)CC(O)(CC(=O)O)C(=O)O [Citrate]
IC90 ([2]; 288 h; 90% inhibition, 12 day time point; read-out: MIC 90): 1 mM
IC50 ([2]; 288 h; read-out: MIC 50): 0.2 mM
antinanobacterial effect in the in vitro test (in words) ([2]; in vitro MIC test): effective antinanobacterial agent

CC[C@H]1OC(=O)[C@H](C)[C@@H](O[C@H]2C[C@@](C)(OC)[C@@H](O)[C@H](C)O2)[C@H](C)[C@@H](O[C@@H]2O[C@H](C)C[C@H](N(C)C)[C@H]2O)[C@](C)(OC)C[C@@H](C)C(=O)[C@H](C)[C@@H](O)[C@]1(C)O [Clarithromycin]
IC50 [2, 6]: > 500 mg/L

O=C(O)CN(CCOCCOCCN(CC(=O)O)CC(=O)O)CC(=O)O [EGTA]
antinanobacterial effect in the in vitro test (in words) ([2]; in vitro MIC test): antinanobacterial effects

CC[C@@H](CO)NCCN[C@@H](CC)CO [Ethambutol]
IC50 [2, 6]: > 500 mg/L

CC(O)(P(=O)(O)O)P(=O)(O)O [Ethidronate]
antinanobacterial effect in the in vitro test (in words) ([2]; in vitro MIC test): bacteriocidic effect
IC90 [2, 7]: 0.5 mg/L
IC50 [2, 6]: 0.1 mg/L

CCC[C@@H]1C[C@@H](C(=O)N[C@@H]([C@H]2O[C@H](SC)[C@H](O)[C@@H](O)[C@H]2O)[C@@H](C)O)N(C)C1 [Lincomycin]
IC50 [2, 6]: > 500 mg/L

Cc1ncc([N+](=O)[O-])n1CCO [Metronidasole]
MIC 50 [2, 8]: >500 mg/L

O=C1CN(/N=C/c2ccc([N+](=O)[O-])o2)C(=O)N1 [Nitrofurantoin]
IC90 [2, 7]: 1.5 mg/L
IC50 [2, 6]: 0.6 mg/L

NC(=O)c1cnccn1 [Pyrazinamide]
IC50 [2, 6]: > 500 mg/L

CO[C@H]1/C=C/O[C@@]2(C)Oc3c(C)c(O)c4c(O)c(c(/C=N/N5CCN(C)CC5)c(O)c4c3C2=O)NC(=O)/C(C)=C\C=C\[C@H](C)[C@H](O)[C@@H](C)[C@@H](O)[C@@H](C)[C@H](OC(C)=O)[C@@H]1C [Rifampicin]
IC50 [2, 6]: > 500 mg/L

[H]/N=C(/N)N[C@H]1[C@H](O)[C@@H](O)[C@H](O[C@@H]2O[C@@H](C)[C@](O)(C=O)[C@H]2O[C@@H]2O[C@@H](CO)[C@H](O)[C@@H](O)[C@@H]2NC)[C@@H](N/C(N)=N\[H])[C@@H]1O [Streptomycin]
antinanobacterial effect in the in vitro test (in words) ([2]; in vitro MIC test): bacteriostatic effects at high antibiotic concentrations
IC50 [2, 6]: > 500 mg/L

CN(C)[C@@H]1C(O)=C(C(N)=O)C(=O)[C@@]2(O)C(O)=C3C(=O)c4c(O)cccc4[C@@](C)(O)[C@H]3C[C@@H]12 [Tetracycline]
IC50 ([2]; light or radiation study, 288 h, read-out: MIC 50): 0.3 mg/L
IC90 ([2]; light or radiation study, 288 h, read-out: MIC 90): 1.3 mg/L

COc1cc(Cc2cnc(N)nc2N)cc(OC)c1OC [Trimethoprim]
antinanobacterial effect in the in vitro test (in words) ([2]; in vitro MIC test): bacteriostatic
IC90 [2, 7]: 5 mg/L
IC50 [2, 6]: 0.7 mg/L

CN[C@H](CC(C)C)C(=O)N[C@H]1C(=O)N[C@@H](CC(N)=O)C(=O)N[C@H]2C(=O)N[C@H]3C(=O)N[C@H](C(=O)N[C@H](C(=O)O)c4cc(O)cc(O)c4-c4cc3ccc4O)[C@H](O)c3ccc(c(Cl)c3)Oc3cc2cc(c3O[C@@H]2O[C@H](CO)[C@@H](O)[C@H](O)[C@H]2O[C@H]2C[C@](C)(N)[C@H](O)[C@H](C)O2)Oc2ccc(cc2Cl)[C@H]1O [Vancomycin]
antinanobacterial effect in the in vitro test (in words) ([2]; in vitro MIC test): effective bacteriostat
IC90 [2, 7]: 250 mg/L
IC50 [2, 6]: 130 mg/L

CC1=CC(=O)c2ccccc2C1=O [Vitamin K (Menadion), Menadion]
antinanobacterial effect in the in vitro test (in words) ([2]; in vitro MIC test): toxic to nanobacteria
IC50 [2, 6]: 2 mg/L

CC(=O)O [acetic acid]
IC50 [2, 9]: 10 to 50 mM

O=C1O[C@H]([C@@H](O)CO)C(O)=C1O [ascorbic acid]
IC50 [2, 9]: 10 to 50 mM

[Cu] [copper]
biofilm formation on commercial stents [3]: prevented

CC(O)C(=O)O (stereo not drawn) [lactic acid]
IC50 [2, 9]: 10 to 50 mM

Nc1ccc(C(=O)O)c(O)c1 [para-aminosalicylic acid]
MIC value compared with acetylsalicylic acid [2]: identical with acetylsalicylic acid

Neomycin
MIC 50 [2, 8]: 16 mg/L
MIC 90 ([2]; 90% inhibition, 12 day time point, DMEM with 10% gamma-irradiated FBS): 30 mg/L
antinanobacterial effect in the in vitro test (in words) ([2]; in vitro MIC test): bacteriostatic effects at high antibiotic concentrations

Penicillin
MIC 50 [2, 8]: >500 mg/L

Polymyxin B
MIC 50 [2, 8]: >500 mg/L

Triton X-100 [1 % Triton X-100]
Resistance of SF-nanobacteria to chemical disinfectants (survival) [1, 4]: +++
Resistance of SF-nanobacteria to chemical disinfectants (survival) [1, 5]: +++

Vitamin D
IC50 ([2]; 50% inhibition, 12 day time point; read-out: MIC 50): > 0.025 mM
antinanobacterial effect in the in vitro test (in words) ([2]; in vitro MIC test): very weak inhibitory effect

hydrochloric acid [1M HCl]
partial or total detachment on exposure [1, 5]: *
Resistance of SF-nanobacteria to chemical disinfectants (survival) [1, 5]: ++
effect of chemical disinfection on SF-nanobacteria (in words) ([1]; listed as Hydrochloric acid): dissolved the apatite layer
effect of chemical disinfection on SF-nanobacteria (in words) ([1]; listed as hydrochloric acid): could not kill nanobacteria

hydrogen peroxide [3% H2O2]
Resistance of SF-nanobacteria to chemical disinfectants (survival) [1, 4]: +++
Resistance of SF-nanobacteria to chemical disinfectants (survival) [1, 5]: +++

hypochlorite [0.5% hypochlorite]
Resistance of SF-nanobacteria to chemical disinfectants (survival) [1, 4]: +++
Resistance of SF-nanobacteria to chemical disinfectants (survival) [1, 5]: +++
